In US9695155B2, “Herbicidal substituted pyrimidinyloxy benzene compounds” (E. I. DU PONT DE NEMOURS AND COMPANY, priority 2013, dated 2017):

What was measured:
[1] = system: wheat; experiment: Test A preemergence; assay type: in vivo, Triticum aestivum
In short: (§1)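 Pre- and postemergence greenhouse screen. Soil: loam + sand. Spray carrier: solvent mixture, non-phytotoxic, with surfactant. Post timing at 1–2 leaves, height 2–10 cm. Readout: visual injury on a 0–100 scale roughly 10 days after application, untreated plants as reference.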

[2] = system: pigweed; experiment: Test A postemergence; assay type: in vivo, Amaranthus retroflexus
In short: as §1

[3] = system: barnyardgrass; experiment: Test A postemergence; assay type: in vivo, Echinochloa crus-galli
In short: as §1

[4] = system: Heteranthera limosa; experiment: Test B flooded paddy test; assay type: in vivo; conditions: Flood, 250 g ai/ha; 0 to 100 scale where 0 is no effect and 100 is complete control
In short: (§2)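 Flooded to 3 cm at the 2-leaf stage, pots received compound through the paddy water and were kept at that depth under greenhouse conditions. After 13–15 days, effect was rated by eye relative to controls, 0 = none and 100 = complete control.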

[5] = system: velvetleaf; experiment: Test A preemergence; assay type: in vivo, Abutilon theophrasti
In short: as §1

[6] = system: corn; experiment: Test A postemergence; assay type: in vivo, Zea mays
In short: as §1

[7] = system: giant foxtail; experiment: Test A postemergence; assay type: in vivo, Setaria faberii
In short: as §1

[8] = system: velvetleaf; experiment: Test A postemergence; assay type: in vivo, Abutilon theophrasti
In short: as §1

[9] = system: barnyardgrass; experiment: Test A preemergence; assay type: in vivo, Echinochloa crus-galli
In short: as §1

[10] = system: barnyardgrass; experiment: Test B flooded paddy test; assay type: in vivo, Echinochloa crus-galli; conditions: Flood, 250 g ai/ha; 0 to 100 scale where 0 is no effect and 100 is complete control
In short: as §2

[11] = system: morningglory; experiment: Test A preemergence; assay type: in vivo, Ipomoea spp.
In short: as §1

[12] = system: giant foxtail; experiment: Test A preemergence; assay type: in vivo, Setaria faberii
In short: as §1

[13] = system: corn; experiment: Test A preemergence; assay type: in vivo, Zea mays
In short: as §1

[14] = system: large (Lg) crabgrass; experiment: Test A postemergence; assay type: in vivo, Digitaria sanguinalis
In short: as §1

[15] = system: rice; experiment: Test B flooded paddy test; assay type: in vivo, Oryza sativa; conditions: Flood, 250 g ai/ha; 0 to 100 scale where 0 is no effect and 100 is complete control
In short: as §2

[16] = system: morningglory; experiment: Test A postemergence; assay type: in vivo, Ipomoea spp.
In short: as §1

[17] = system: large (Lg) crabgrass; experiment: Test A preemergence; assay type: in vivo, Digitaria sanguinalis
In short: as §1

[18] = system: sedge, umbrella; experiment: Test B flooded paddy test; assay type: in vivo, Cyperus difformis; conditions: Flood, 250 g ai/ha; 0 to 100 scale where 0 is no effect and 100 is complete control
In short: as §2

[19] = system: pigweed; experiment: Test A preemergence; assay type: in vivo, Amaranthus retroflexus
In short: as §1

[20] = system: wheat; experiment: Test A postemergence; assay type: in vivo, Triticum aestivum
In short: as §1

[21] = 125 g ai/ha, 0 to 100 scale where 0 is no effect and 100 is complete control
[22] = 500 g ai/ha, 0 to 100 scale, 0 no effect, 100 complete control, approx. 10 days
[23] = 500 g ai/ha, 0 to 100 scale where 0 is no effect and 100 is complete control
[24] = 500 g ai/ha, 0 to 100 scale, 0 no effect, 100 complete control

SMILES: FC(F)(F)c1cccc(Oc2ncc(Br)cn2)c1-n1cc(Br)cn1 [Compound 77]
- Plant response rating, Wheat [1, 21]: 0
- Wheat plant response rating [1, 22]: 0
- Plant response rating, Pigweed [2, 21]: 100
- Plant response rating, Pigweed [2, 23]: 100
- Plant response rating, Barnyardgrass [3, 21]: 40
- Plant response rating, Barnyardgrass [3, 24]: 70
- Plant response rating, Ducksalad [4]: 40
- Plant response rating, Velvetleaf [5, 21]: 60
- Velvetleaf plant response rating [5, 22]: 100
- Plant response rating, Corn [6, 21]: 20
- Plant response rating, Corn [6, 24]: 40
- Plant response rating, Foxtail, Giant [7, 21]: 50
- Plant response rating, Foxtail, Giant [7, 23]: 90
- Plant response rating, Velvetleaf [8, 21]: 80
- Plant response rating, Velvetleaf [8, 23]: 100
- Plant response rating, Barnyardgrass [9, 21]: 50
- Barnyardgrass plant response rating [9, 22]: 90
- Plant response rating, Barnyardgrass [10]: 0
- Plant response rating, Morningglory [11, 21]: 10
- Morningglory plant response rating [11, 22]: 60
- Plant response rating, Foxtail, Giant [12, 21]: 90
- Foxtail, Giant plant response rating [12, 22]: 100
- Plant response rating, Corn [13, 21]: 0
- Corn plant response rating [13, 22]: 0
- Plant response rating, Crabgrass, Large [14, 21]: 50
- Plant response rating, Crabgrass, Large [14, 24]: 90
- Plant response rating, Rice [15]: 20
- Plant response rating, Morningglory [16, 21]: 70
- Plant response rating, Morningglory [16, 23]: 100
- Plant response rating, Crabgrass, Large [17, 21]: 90
- Crabgrass, Large plant response rating [17, 22]: 100
- Plant response rating, Sedge, Umbrella [18]: 70
- Plant response rating, Pigweed [19, 21]: 100
- Pigweed plant response rating [19, 22]: 100
- Plant response rating, Wheat [20, 21]: 0
- Plant response rating, Wheat [20, 23]: 30

SMILES: N#Cc1cnc(Oc2ccccc2-n2cc(Br)cn2)nc1 [Compound 233]
- Wheat plant response rating (0 to 100 scale) ([1]; 125 g ai/ha): 0
- Wheat plant response rating [1, 23]: 0
- Pigweed plant response rating [2, 21]: 20
- Plant response rating, Pigweed [2, 23]: 50
- Barnyardgrass plant response rating [3, 21]: 0
- Plant response rating, Barnyardgrass [3, 23]: 20
- Plant response rating, Ducksalad [4]: 50
- Velvetleaf plant response rating (0 to 100 scale) ([5]; 125 g ai/ha): 0
- Velvetleaf plant response rating [5, 23]: 0
- Corn plant response rating [6, 21]: 0
- Plant response rating, Corn [6, 23]: 0
- Foxtail, Giant plant response rating [7, 21]: 0
- Plant response rating, Foxtail, Giant [7, 23]: 20
- Velvetleaf plant response rating [8, 21]: 0
- Plant response rating, Velvetleaf [8, 23]: 30
- Barnyardgrass plant response rating (0 to 100 scale, 0 is no effect, 100 is complete control) ([9]; 125 g ai/ha): 0
- Barnyardgrass plant response rating [9, 23]: 0
- Plant response rating, Barnyardgrass [10]: 10
- Morningglory plant response rating (0 to 100 scale) ([11]; 125 g ai/ha): 0
- Morningglory plant response rating [11, 23]: 0
- Foxtail, Giant plant response rating (0 to 100 scale) ([12]; 125 g ai/ha): 0
- Foxtail, Giant plant response rating [12, 23]: 0
- Corn plant response rating (0 to 100 scale) ([13]; 125 g ai/ha): 0
- Corn plant response rating [13, 23]: 0
- Crabgrass, Large plant response rating [14, 21]: 0
- Plant response rating, Crabgrass, Large [14, 23]: 10
- Plant response rating, Rice [15]: 20
- Morningglory plant response rating [16, 21]: 0
- Plant response rating, Morningglory [16, 23]: 0
- Crabgrass, Large plant response rating (0 to 100 scale) ([17]; 125 g ai/ha): 0
- Crabgrass, Large plant response rating [17, 23]: 10
- Plant response rating, Sedge, Umbrella [18]: 50
- Pigweed plant response rating (0 to 100 scale) ([19]; 125 g ai/ha): 0
- Pigweed plant response rating [19, 23]: 20
- Wheat plant response rating [20, 21]: 0
- Plant response rating, Wheat [20, 23]: 0

SMILES: Cc1cnc(Oc2ccccc2-n2cc(Cl)cn2)nc1 [Compound 15]
- Wheat plant response rating [1, 21]: 0
- Wheat plant response rating [1, 22]: 0
- Plant response rating, Pigweed [2, 21]: 70
- Plant response rating, Pigweed [2, 24]: 100
- Plant response rating, Barnyardgrass [3, 21]: 0
- Plant response rating, Barnyardgrass [3, 24]: 60
- Plant response rating, Ducksalad [4]: 75
- Velvetleaf plant response rating [5, 21]: 60
- Velvetleaf plant response rating [5, 22]: 100
- Plant response rating, Corn [6, 21]: 0
- Plant response rating, Corn [6, 24]: 20
- Plant response rating, Foxtail, Giant [7, 21]: 10
- Plant response rating, Foxtail, Giant [7, 24]: 70
- Plant response rating, Velvetleaf [8, 21]: 90
- Plant response rating, Velvetleaf [8, 24]: 100
- Barnyardgrass plant response rating [9, 21]: 20
- Barnyardgrass plant response rating [9, 22]: 100
- Plant response rating, Barnyardgrass [10]: 20
- Morningglory plant response rating [11, 21]: 0
- Morningglory plant response rating [11, 22]: 0
- Foxtail, Giant plant response rating [12, 21]: 30
- Foxtail, Giant plant response rating [12, 22]: 100
- Corn plant response rating [13, 21]: 0
- Corn plant response rating [13, 22]: 0
- Plant response rating, Crabgrass, Large [14, 21]: 10
- Plant response rating, Crabgrass, Large [14, 24]: 60
- Plant response rating, Rice [15]: 20
- Plant response rating, Morningglory [16, 21]: 10
- Plant response rating, Morningglory [16, 24]: 20
- Crabgrass, Large plant response rating [17, 21]: 40
- Crabgrass, Large plant response rating [17, 22]: 100
- Plant response rating, Sedge, Umbrella [18]: 85
- Pigweed plant response rating [19, 21]: 90
- Pigweed plant response rating [19, 22]: 100
- Plant response rating, Wheat [20, 21]: 0
- Plant response rating, Wheat [20, 24]: 10
